Literature values as cited in US7132452B2, “Topical formulation having effects on alleviating pain/inflammation caused by herpes virus infection” (priority 2003, dated 2006).

SMILES	solubility in water
O=C(c1ccccc1)c1ccc2n1CCC2C(=O)O (racemic) [ketorolac, (±)-5-benzoyl-2,3-dihydro-1H-pyrrolizine-1-carboxylic acid]	very low solubility in water
O=C(O)Cc1ccccc1Nc1c(Cl)cccc1Cl [diclofenac, 2-(2,6-dichloro-anilino)-phenyl-acetic acid]	relatively low solubility in water
O=C(c1ccccc1)c1ccc2n1CCC2C(=O)O (stereo not drawn) [ketorolac tromethamine]	much more water soluble than the free acid form of ketorolac
